# Measurements: patent US20150299125A1, “PRODRUG BIPYRIDYLAMINOPYRIDINES AS SYK INHIBITORS” (MERCK SHARP & DOHME CORP., priority 2012, published 2015)
# Read-outs that look alike come from different tables or passages of the source.
# What was measured:
# [1] = biological target: T1, recombinant human GST-Syk (Homo sapiens, UniProt P43405); assay: Homogeneous Time-Resolved Fluorescence (HTRF) assay for the recombinant human Syk enzyme; format: biochemical; settings: recombinant human GST-Syk 5 pM, ATP 25 μM, read-out: IC50
# T1 construct: purchased Carna Biosciences 08-176
# Method: Syk inhibition of the compounds of Formula (I) may be determined using the following assay protocol: Homogeneous Time-Resolved Fluorescence (HTRF) Assay for the Recombinant Human Syk Enzyme: A recombinant GST-hSyk fusion protein was used to measure potency of compounds to inhibit human Syk activity. […] Final volume of the reaction was 10 μL. Phosphorylation of the peptide was allowed to proceed for 45' at room temperature. To quench the reaction and detect the phosphorylated product, 2 nM of a Europium-anti-phosphotyrosine antibody (Perkin Elmer #AD0161) and 70 nM SA-APC (Perkin-Elmer #CR130-100) were added together in 15 mM Tris pH 7.5, 40 mM EDTA, 0.01% tween 20. Final volume of the quenching solution was 10 μL. The resulting HTRF signal was measured after 30 minutes on a EnVision (Perkin-Elmer) reader using a time-resolved fluorescence protocol.
# [2] = Solubility in biorelevant fasted state simulated intestinal fluid (FaSSIF); format: physicochemical; settings: kinetic from dmso stock
# Method: Solubility in Biorelevant Fasted State Simulated Intestinal Fluid (FaSSIF):
# A 10 mM DMSO stock solution of compound to be tested is used. A 100 μM standard solution is generated by diluting 2.5 μL of the 10 mM stock solution with 247.5 μL of diluent (10% DMSO/10% MeCN/80% MeOH, v/v/v). A solubility solution is generated by diluting 5 μL of the 10 mM stock solution with 245 μL of FaSSIF (maximum solubility approximately 200 μM). […] The equilibrated solubility solution is filtered by centrifugation (3 minutes at 4000 rpm) using a 0.45 µm filter with a polypropylene membrane. The standard solution and the filtered equilibrated solubility solution are analyzed by HPLC/DAD. The solubility value is calculated by the following equation:
# Solubility=(Peak area of sample/Peak area of standard)(Standard concentration)
IC50 [1] [nM],"solubility ([2]; 25 °C, fassif, Solubility) [µM]",Compound,"solubility ([2]; FaSSIF, equilibrated overnight at 25° C., maximum solubility approximately 200 μM, read-out: Solubility) [µM]","solubility ([2]; FaSSIF (fasted state simulated intestinal fluid), 25 °C, fassif, FaSSIF, equilibrated overnight at 25° C., maximum solubility approximately 200 μM, read-out: Solubility) [µM]"
4.4,140,"Cc1cc(Nc2cc(C(F)F)ccn2)nc(-c2ccc([C@](C)(O)[C@H]3CC[C@H](C(=O)OCCCN(C)C)CC3)nc2)c1 [Example 1-13, 3-(dimethylamino)propyl trans-4-[(1R)-1-(6-{[4-(difluoromethyl)pyridin-2-yl]amino}-4-methyl-2,3′-bipyridin-6′-yl)-1-hydroxyethyl] cyclohexanecarboxylate]",,
27.6,109,"Cc1cc(Nc2cc(C(F)F)ccn2)nc(-c2ccc([C@](C)(O)[C@H]3CC[C@H](C(=O)OC[C@H]4COC(C)(C)O4)CC3)nc2)c1 [Example 1-14, [(4R)-2,2-dimethyl-1,3-dioxolan-4-yl]methyl trans-4-[(1R)-1-(6-{[4-(difluoromethyl)pyridin-2-yl]amino}-4-methyl-2,3′-bipyridin-6′-yl)-1-hydroxyethyl] cyclohexanecarboxylate]",,
18.5,126,"Cc1cc(Nc2cc(C(F)F)ccn2)nc(-c2ccc([C@](C)(O)[C@H]3CC[C@H](C(=O)OC[C@@H]4COC(C)(C)O4)CC3)nc2)c1 [Example 1-15, [(4S)-2,2-dimethyl-1,3-dioxolan-4-yl]methyl trans 4-[(1R)-1-(6-{[4-(difluoromethyl)pyridin-2-yl]amino}-4-methyl-2,3′-bipyridin-6′-yl)-1-hydroxyethyl] cyclohexanecarboxylate]",,
2.3,165,"Cc1cc(Nc2cc(C(F)F)ccn2)nc(-c2ccc([C@](C)(O)[C@H]3CC[C@H](C(=O)OC[C@H](O)CO)CC3)nc2)c1 [Example 1-16, (2R)-2,3-dihydroxypropyl trans-4-[(1R)-1-(6-{[4-(difluoromethyl)pyridin-2-yl]amino}-4-methyl-2,3′-bipyridin-6′-yl)-1-hydroxyethyl] cyclohexanecarboxylate]",,
4.4,98,"Cc1cc(Nc2cc(C(F)F)ccn2)nc(-c2ccc([C@](C)(O)[C@H]3CC[C@H](C(=O)O[C@H]4C[C@H](N)C4)CC3)nc2)c1 [Example 1-19, trans-3-aminocyclobutyl trans-4-[(1R)-1-(6-{[4-(difluoromethyl)pyridin-2-yl]amino}-4-methyl-2,3′-bipyridin-6′-yl)-1-hydroxyethyl] cyclohexanecarboxylate]",,
34.1,47,"Cc1cc(Nc2cc(C(F)F)ccn2)nc(-c2ccc([C@](C)(O)[C@H]3CC[C@H](C(=O)OCC4CCOCC4)CC3)nc2)c1 [Example 1-20, tetrahydro-2H-pyran-4-ylmethyl trans-4-[(1R)-1-(6-{[4-(difluoromethyl)pyridin-2-yl]amino}-4-methyl-2,3′-bipyridin-6′-yl)-1-hydroxyethyl] cyclohexanecarboxylate]",,
< 0.5,73,"Cc1cc(Nc2cc(C(F)F)ccn2)nc(-c2ccc([C@](C)(O)[C@H]3CC[C@H](C(=O)OCCCCCCN(C)C)CC3)nc2)c1 [Example 1-25, 6-(dimethylamino)hexyl trans-4-[(1R)-1-(6-{[4-(difluoromethyl)pyridin-2-yl]amino}-4-methyl-2,3′-bipyridin-6′-yl)-1-hydroxyethyl] cyclohexanecarboxylate]",,
1.8,50,"Cc1cc(Nc2cc(C(F)F)ccn2)nc(-c2ccc([C@](C)(O)[C@H]3CC[C@H](C(=O)OCCC(=O)N(C)C)CC3)nc2)c1 [Example 1-27, 3-(dimethylamino)-3-oxopropyl trans-4-[(1R)-1-(6-{[4-(difluoromethyl)pyridin-2-yl]amino}-4-methyl-2,3′-bipyridin-6′-yl)-1-hydroxyethyl] cyclohexanecarboxylate]",,
19.9,167,"Cc1cc(Nc2cc(C(F)F)ccn2)nc(-c2ccc([C@](C)(O)[C@H]3CC[C@H](C(=O)OCOC(=O)OCCCCCCN)CC3)nc2)c1 [Example 2-1, ({[(6-Aminohexyl)oxy]carbonyl}oxy)methyl trans-4-[(1R)-1-(6-{[4-(difluoromethyl)pyridin-2-yl]amino}-4-methyl-2,3′-bipyridin-6′-yl)-1-hydroxyethyl]cyclohexanecarboxylate]",,

# The next lines start with the molecule.
Compound,IC50 [1] [nM],"solubility ([2]; 25 °C, fassif, Solubility) [µM]","solubility ([2]; FaSSIF, equilibrated overnight at 25° C., maximum solubility approximately 200 μM, read-out: Solubility) [µM]","solubility ([2]; FaSSIF (fasted state simulated intestinal fluid), 25 °C, fassif, FaSSIF, equilibrated overnight at 25° C., maximum solubility approximately 200 μM, read-out: Solubility) [µM]"
"Cc1cc(Nc2cc(C(F)F)ccn2)nc(-c2ccc([C@](C)(O)[C@H]3CC[C@H](C(=O)OCCC(C)(C)O)CC3)nc2)c1 [Example 1-12, 3-hydroxy-3-methylbutyl trans-4-[(1R)-1-(6-{[4-(difluoromethyl)pyridin-2-yl]amino}-4-methyl-2,3′-bipyridin-6′-yl)-1-hydroxyethyl] cyclohexanecarboxylate]",10,,76,
"Cc1cc(Nc2cc(C(F)F)ccn2)nc(-c2ccc([C@](C)(O)[C@H]3CC[C@H](C(=O)OC4CCNCC4)CC3)nc2)c1 [Example 1-17, piperidin-4-yl trans-4-[(1R)-1-(6-{[4-(difluoromethyl)pyridin-2-yl]amino}-4-methyl-2,3′-bipyridin-6′-yl)-1-hydroxyethyl] cyclohexanecarboxylate]",4.1,136,,
"Cc1cc(Nc2cc(C(F)F)ccn2)nc(-c2ccc([C@](C)(O)[C@H]3CC[C@H](C(=O)OC4CC5CCC(C4)N5)CC3)nc2)c1 (stereo partly drawn) [Example 1-18, 8-azabicyclo[3.2.1]oct-3-yl trans-4-[(1R)-1-(6-{[4-(difluoromethyl)pyridin-2-yl]amino}-4-methyl-2,3′-bipyridin-6′-yl)-1-hydroxyethyl] cyclohexanecarboxylate]",2.7,,,109
"CN[C@H]1CC[C@H](OC(=O)[C@H]2CC[C@H]([C@@](C)(O)c3ccc(-c4cc(C)cc(Nc5cc(C(F)F)ccn5)n4)cn3)CC2)CC1 [Example 1-24, trans-4-(methylamino)cyclohexyl trans-4-[(1R)-1-(6-{[4-(difluoromethyl)pyridin-2-yl]amino}-4-methyl-2,3′-bipyridin-6′-yl)-1-hydroxyethyl] cyclohexanecarboxylate]",3.5,141,,
"CO[C@H]1O[C@H](COC(=O)[C@H]2CC[C@H]([C@@](C)(O)c3ccc(-c4cc(C)cc(Nc5cc(C(F)F)ccn5)n4)cn3)CC2)[C@@H](O)[C@H](O)[C@H]1O [Example 1-26, methyl 6-O-({trans-4-[(1R)-1-(6-{[4-(difluoromethyl)pyridin-2-yl]amino}-4-methyl-2,3′-bipyridin-6′-yl)-1-hydroxyethyl]cyclohexyl}carbonyl)-alpha-D-glucopyranoside]",4.1,109,,
"Cc1cc(Nc2cc(C(F)F)ccn2)nc(-c2ccc([C@](C)(O)[C@H]3CC[C@H](C(=O)OCOC(=O)O[C@H]4CC[C@H](N)CC4)CC3)nc2)c1 [Example 2-11, ({[(trans-4-aminocyclohexyl)oxy]carbonyl}oxy) methyl trans-4-[(1R)-1-(6-{[4-(difluoromethyl)pyridin-2-yl]amino}-4-methyl-2,3′-bipyridin-6′-yl)-1-hydroxyethyl]cyclo hexanecarboxylate]",5.2,149,,
"CCOCCOCCOC(=O)OC(OC(=O)[C@H]1CC[C@H]([C@@](C)(O)c2ccc(-c3cc(C)cc(Nc4cc(C(F)F)ccn4)n3)cn2)CC1)C(C)C (stereo partly drawn) [Example 2-16, 1-(1-methylethyl)-3-oxo-2,4,7,10-tetraoxadodec-1-yl trans-4-[(1R)-1-(6-{[4-(difluoromethyl)pyridin-2-yl]amino}-4-methyl-2,3′-bipyridin-6′-yl)-1-hydroxyethyl]cyclo hexanecarboxylate]",48.4,48,,
